Measured values from ChEMBL document CHEMBL3399954, “Design and synthesis of new tricyclic indoles as potent modulators of the S1P1 receptor” (Bioorg Med Chem Lett, 2015).

Experiments:
[1] = Half life in mouse liver microsomes; type: ADME
[2] = Half life in rat liver microsomes; type: ADME
[3] = Half life in human liver microsomes; type: ADME
[4] = Clearance in Sprague-Dawley rat at 1 mg/kg, iv and 1 mg/kg, po; type: ADME, organism-based; settings: in vivo
[5] = Volume of distribution at steady state in Sprague-Dawley rat at 1 mg/kg, iv and 1 mg/kg, po; type: ADME, organism-based; settings: in vivo, read-out: Vdss
[6] = AUClast in Sprague-Dawley rat at 1 mg/kg, iv and 1 mg/kg, po; type: ADME, organism-based; settings: plasma
[7] = Half life in Sprague-Dawley rat at 1 mg/kg, iv; type: ADME, organism-based; parameters: dose 1 mg/kg, route intravenous; settings: in vivo
[8] = Oral bioavailability in Sprague-Dawley rat at 1 mg/kg; type: ADME, organism-based; settings: in vivo

half-life [1]: > 1 h
half-life [2]: > 1 h
half-life [3]: > 1 h
clearance [4]: 10.7 mL/min/kg
Vd [5]: 6.71 L/kg
AUC(0-t) [6]: 1320 ng·h/mL
half-life [7]: 9.49 h
bioavailability [8]: < 2%
SMILES: O=C(O)CC1NCCc2c1[nH]c1ccc(OCc3ccc(C4CCCC4)c(C(F)(F)F)c3)cc21 (single isomer, unassigned)
